Data from patent US20220031797A1, “PHARMACEUTICAL COMPOSITIONS CONTAINING HYALURONIC ACID AND CARNOSINE AND RELATIVE USE” (FIDIA FARMACEUTICI S.P.A., priority 2017, published 2022).

Tested on: Monosodium Iodoacetate (MIA) Osteoarthritis in Rats
Assay: MIA-induced osteoarthritis in rats, oral treatment, histological evaluation (modified Mankin score)
Type: in vivo
Conditions: oral every 24 hours day 3-20, conjugate of Example 2 (35% mol/mol) 88.5 mg/kg, mixture 16.2 mg/kg carnosine + 72.3 mg/kg HA, naproxen 10 mg/kg, day 21, versus MIA-control, FIG. 7
Procedure: OA was induced in the posterior knee joints of the rats being tested, by the intra-articular injection of MIA: 25 μl of saline containing 1 mg/kg of MIA were injected into the joint (knee) of the right paw of each animal (under treatment) through the infrapatal ligament, whereas the left joint received an equal volume of saline 0.9% (Sagar D R et al, Ann. Rheum. Dis., 2013, 73: 1558-1565).
Male Sprague-Dawley rats, of about 230 g each, were used, 20 rats per group.
Group 1: MIA-control: the animals were treated by MIA induction and subsequently with distilled water administered orally every 24 hours from the 3rd day after MIA until the 20th day, end of the experimentation.
Group 2: MIA+HA/carnosine conjugate: the animals were treated by MIA induction and subsequently with the above-mentioned conjugate every 24 hours from the 3rd day after MIA until the 20th day. The conjugate used for the experimentation was prepared according to Example 2, it was then derivatized at 35% mol/mol, the dose, administered orally, was equal to 88.5 mg/kg of conjugate (16.2 mg of carnosine and 72.3 mg of HA).
Group 3: MIA+HA/carnosine mixture: the animals were treated by MIA induction and subsequently with HA/carnosine every 24 hours starting from the 3rd day after MIA up to the 20th day. […]

Question: With `COc1ccc2cc([C@H](C)C(=O)O)ccc2c1` [naproxen] as the compound, how does the “Histological evaluation (modified Mankin Histological score 0-12; histological damage and cartilage degeneration)” value read?
Answer: totally comparable to the effect elicited by naproxen
